Experimental data as given in ChEMBL document CHEMBL4145634, “Discovery of Janus Kinase 2 (JAK2) and Histone Deacetylase (HDAC) Dual Inhibitors as a Novel Strategy for the Combinational Treatment of Leukemia and Invasive Fungal Infections” (J Med Chem, 2018).
Values after ≈ are worked out from the molar mass of the structure shown. Active and inactive are the calls of the source. The calls are words filed in the database; no cut-off is given here.

Columns and labels:
Histone deacetylase 2 = Histone deacetylase 2 (Homo sapiens, UniProt Q92769); experiment: Inhibition of recombinant HDAC2 (unknown origin) using (Ac-Leu-Gly-Lys(Ac)-AMC as substrate preincubated for 5 mins followed by substrate addition and measured after 30 mins by fluorescence assay
[1] = target: Non-receptor tyrosine-protein kinase TYK2 (Homo sapiens, UniProt P29597); experiment: Inhibition of TYK2 (unknown origin) using FAM-labeled peptide as substrate preincubated for 10 mins followed by substrate addition and measured after 25 mins in presence of ATP
Histone deacetylase 1 = Histone deacetylase 1 (Homo sapiens, UniProt Q13547); experiment: Inhibition of full length human recombinant HDAC1 expressed in baculovirus expression system using (Ac-Leu-Gly-Lys(Ac)-AMC as substrate preincubated for 5 mins followed by substrate addition and measured after 30 mins by fluorescence assay
HL-60 = experiment: Antiproliferative activity against human HL60 cells after 48 hrs by CCK-8 assay; format: functional, cell-based; conditions: HL-60, 48 h
HEL [2] = experiment: Cell cycle arrest in human HEL cells assessed as accumulation at G2/M phase at 5 uM after 48 hrs propidium iodide staining based flow cytometry (reference value: 9.31%); format: functional
HEL [3] = experiment: Cell cycle arrest in human HEL cells assessed as accumulation at S phase at 5 uM after 48 hrs propidium iodide staining based flow cytometry relative to control; format: functional
[4] = target: T1, Protein deacetylase HDAC6 (Homo sapiens, UniProt Q9UBN7); experiment: Inhibition of full length human recombinant HDAC6 expressed in Baculovirus infected Sf9 cells using (Ac-Leu-Gly-Lys(Ac)-AMC as substrate preincubated for 5 mins followed by substrate addition and measured after 30 mins by fluorescence assay
T1 sequence (Q9UBN7 whole entry): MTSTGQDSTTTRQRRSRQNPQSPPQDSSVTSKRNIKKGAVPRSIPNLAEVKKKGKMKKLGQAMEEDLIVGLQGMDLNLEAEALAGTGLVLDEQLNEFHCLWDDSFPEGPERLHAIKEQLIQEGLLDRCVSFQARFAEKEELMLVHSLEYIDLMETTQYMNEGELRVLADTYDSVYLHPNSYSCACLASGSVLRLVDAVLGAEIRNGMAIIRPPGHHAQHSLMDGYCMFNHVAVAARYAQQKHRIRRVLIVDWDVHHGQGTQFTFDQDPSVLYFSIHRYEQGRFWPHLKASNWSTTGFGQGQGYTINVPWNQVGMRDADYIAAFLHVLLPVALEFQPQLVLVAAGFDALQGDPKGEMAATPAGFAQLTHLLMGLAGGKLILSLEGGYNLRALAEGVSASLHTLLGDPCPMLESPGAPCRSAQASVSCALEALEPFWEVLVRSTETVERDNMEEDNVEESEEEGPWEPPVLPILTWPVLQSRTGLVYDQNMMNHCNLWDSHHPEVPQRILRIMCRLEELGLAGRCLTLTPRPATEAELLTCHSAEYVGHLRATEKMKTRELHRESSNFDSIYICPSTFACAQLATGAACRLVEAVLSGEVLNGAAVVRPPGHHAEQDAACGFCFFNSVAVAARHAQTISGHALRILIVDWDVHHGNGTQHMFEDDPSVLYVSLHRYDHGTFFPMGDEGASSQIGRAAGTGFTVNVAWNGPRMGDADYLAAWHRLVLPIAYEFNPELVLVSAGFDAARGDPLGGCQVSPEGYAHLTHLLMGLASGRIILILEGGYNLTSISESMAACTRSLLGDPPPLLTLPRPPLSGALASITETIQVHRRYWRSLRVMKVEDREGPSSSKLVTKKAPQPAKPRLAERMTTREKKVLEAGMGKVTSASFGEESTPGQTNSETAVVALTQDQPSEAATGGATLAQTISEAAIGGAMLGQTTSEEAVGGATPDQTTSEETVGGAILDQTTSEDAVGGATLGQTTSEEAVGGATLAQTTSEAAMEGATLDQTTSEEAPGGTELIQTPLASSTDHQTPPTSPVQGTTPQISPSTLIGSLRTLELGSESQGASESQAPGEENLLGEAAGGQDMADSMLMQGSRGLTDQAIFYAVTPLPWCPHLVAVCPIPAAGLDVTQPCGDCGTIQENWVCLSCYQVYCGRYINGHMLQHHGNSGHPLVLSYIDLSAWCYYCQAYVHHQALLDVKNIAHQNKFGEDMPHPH

Histone deacetylase 8 = target: T2, Histone deacetylase 8 (Homo sapiens, UniProt Q9BY41); experiment: Inhibition of full length recombinant C-terminal His tagged human HDAC8 expressed in Baculovirus infected Sf9 cells using Ac-Leu-Gly-Lys(Tfa)-AMC as substrate preincubated for 5 mins followed by substrate addition and measured after 30 mins by fluorescence assay
T2 sequence (Q9BY41 whole entry): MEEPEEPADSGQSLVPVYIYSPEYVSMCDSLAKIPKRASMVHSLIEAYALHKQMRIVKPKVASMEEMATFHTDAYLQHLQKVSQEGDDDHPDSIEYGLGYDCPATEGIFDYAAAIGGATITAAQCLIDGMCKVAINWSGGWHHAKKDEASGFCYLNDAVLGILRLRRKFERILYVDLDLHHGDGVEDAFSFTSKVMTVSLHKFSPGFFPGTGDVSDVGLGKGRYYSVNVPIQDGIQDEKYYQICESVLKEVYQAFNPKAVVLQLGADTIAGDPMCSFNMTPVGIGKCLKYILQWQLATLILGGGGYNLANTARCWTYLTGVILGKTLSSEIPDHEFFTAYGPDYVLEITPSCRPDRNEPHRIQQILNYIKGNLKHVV

Candida albicans [5] = experiment: microbe, parasite or virus in culture; format: functional; conditions: Candida albicans, 0304103, 48 h
Description: Antifungal activity against FLC resistant Candida albicans 0304103 after 48 hrs by checkerboard microdilution method

Candida albicans [6] = experiment: microbe, parasite or virus in culture; format: functional; conditions: Candida albicans, 0304103, 48 h; remark: listed apart in the source
Description: Antifungal activity against FLC resistant Candida albicans 0304103 assessed as fluconazol MIC50 after 48 hrs by checkerboard microdilution method

Candida albicans [7] = experiment: Antifungal activity against FLC resistant Candida albicans 100 after 48 hrs in presence of fluconazol by checkerboard microdilution method; format: functional; conditions: Candida albicans, 100, 48 h
Candida albicans [8] = experiment: microbe, parasite or virus in culture; format: functional; conditions: Candida albicans, 0710922, 48 h
Description: Antifungal activity against FLC resistant Candida albicans 0710922 after 48 hrs by checkerboard microdilution method

Candida albicans [9] = experiment: Synergistic antifungal activity against FLC resistant Candida albicans 100 assessed as FIC index after 48 hrs by checkerboard microdilution method; format: functional
[10] = target: Tyrosine-protein kinase JAK2 (Homo sapiens, UniProt O60674); experiment: Inhibition of JAK2 in human HEL cells assessed as decrease in STAT5 phosphorylation after 24 hrs by Western blot analysis; format: cell-based
Mus musculus = experiment: Protection against spleen enlargement in SCID mouse xenografted with human HEL cells at 10 mg/kg, ip qd; format: functional, organism-based
HEL [11] = experiment: Antitumor activity in human HEL cells xenografted in SCID mouse assessed as mouse survival time at 10 mg/kg, ip qd; format: functional
[12] = Clearance in ICR mouse liver microsomes at 1 uM measured up to 45 mins in presence of NADPH by LC-MS/MS analysis; format: ADME, microsome; conditions: 0.75 h
Candida albicans [13] = experiment: Antibiofilm activity against FLC resistant Candida albicans 0304103 assessed as inhibition of biofilm formation pre-incubated with 64 ug/ml FLC for 90 mins followed by further incubation with compound at 16 ug/ml for 24 hrs by XTT reduction assay; format: functional

Chain of Non-receptor tyrosine-protein kinase TYK2 (P29597 whole entry): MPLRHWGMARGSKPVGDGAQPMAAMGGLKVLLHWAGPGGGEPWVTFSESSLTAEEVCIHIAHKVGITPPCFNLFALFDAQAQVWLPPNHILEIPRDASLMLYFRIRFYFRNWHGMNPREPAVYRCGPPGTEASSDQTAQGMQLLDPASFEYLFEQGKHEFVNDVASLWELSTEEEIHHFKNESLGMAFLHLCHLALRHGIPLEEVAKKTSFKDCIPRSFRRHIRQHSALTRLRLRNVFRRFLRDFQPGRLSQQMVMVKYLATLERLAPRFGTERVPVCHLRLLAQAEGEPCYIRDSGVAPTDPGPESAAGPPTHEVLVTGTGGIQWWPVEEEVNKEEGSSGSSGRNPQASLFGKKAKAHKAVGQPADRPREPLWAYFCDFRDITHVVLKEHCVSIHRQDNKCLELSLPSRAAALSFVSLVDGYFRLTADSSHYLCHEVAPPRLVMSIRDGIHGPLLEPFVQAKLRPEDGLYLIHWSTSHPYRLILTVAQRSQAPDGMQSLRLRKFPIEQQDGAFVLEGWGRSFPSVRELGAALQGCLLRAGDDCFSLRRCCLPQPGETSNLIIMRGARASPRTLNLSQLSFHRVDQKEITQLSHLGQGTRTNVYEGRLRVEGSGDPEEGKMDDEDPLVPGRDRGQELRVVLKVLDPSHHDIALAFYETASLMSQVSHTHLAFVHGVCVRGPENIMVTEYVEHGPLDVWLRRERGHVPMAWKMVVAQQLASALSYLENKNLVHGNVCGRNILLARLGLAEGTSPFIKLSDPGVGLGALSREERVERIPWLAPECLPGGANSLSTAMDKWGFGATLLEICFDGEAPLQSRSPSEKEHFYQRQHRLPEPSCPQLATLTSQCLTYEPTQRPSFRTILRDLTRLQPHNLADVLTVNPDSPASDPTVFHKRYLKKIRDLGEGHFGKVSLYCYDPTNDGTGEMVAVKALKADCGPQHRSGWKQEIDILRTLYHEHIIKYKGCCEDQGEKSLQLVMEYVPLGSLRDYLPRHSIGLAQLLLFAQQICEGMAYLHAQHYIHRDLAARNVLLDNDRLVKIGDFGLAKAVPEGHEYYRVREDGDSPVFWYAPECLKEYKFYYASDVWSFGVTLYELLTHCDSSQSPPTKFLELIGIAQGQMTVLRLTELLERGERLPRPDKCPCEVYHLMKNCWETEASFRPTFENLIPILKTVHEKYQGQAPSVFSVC
Chain of Histone deacetylase 1 (Q13547 whole entry): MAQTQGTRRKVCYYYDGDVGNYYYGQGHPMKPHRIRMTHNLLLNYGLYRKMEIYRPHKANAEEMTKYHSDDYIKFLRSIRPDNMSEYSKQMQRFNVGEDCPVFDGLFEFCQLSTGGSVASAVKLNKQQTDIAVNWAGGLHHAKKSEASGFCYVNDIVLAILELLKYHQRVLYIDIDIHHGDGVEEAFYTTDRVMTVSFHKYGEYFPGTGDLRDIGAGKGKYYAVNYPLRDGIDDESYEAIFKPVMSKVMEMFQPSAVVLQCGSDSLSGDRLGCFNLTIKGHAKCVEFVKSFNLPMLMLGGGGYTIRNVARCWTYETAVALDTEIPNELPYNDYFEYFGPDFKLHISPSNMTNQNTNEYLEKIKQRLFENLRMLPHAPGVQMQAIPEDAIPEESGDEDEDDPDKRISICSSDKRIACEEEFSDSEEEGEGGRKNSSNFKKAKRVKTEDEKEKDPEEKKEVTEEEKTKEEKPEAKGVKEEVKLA
Chain of Tyrosine-protein kinase JAK2 (O60674 whole entry): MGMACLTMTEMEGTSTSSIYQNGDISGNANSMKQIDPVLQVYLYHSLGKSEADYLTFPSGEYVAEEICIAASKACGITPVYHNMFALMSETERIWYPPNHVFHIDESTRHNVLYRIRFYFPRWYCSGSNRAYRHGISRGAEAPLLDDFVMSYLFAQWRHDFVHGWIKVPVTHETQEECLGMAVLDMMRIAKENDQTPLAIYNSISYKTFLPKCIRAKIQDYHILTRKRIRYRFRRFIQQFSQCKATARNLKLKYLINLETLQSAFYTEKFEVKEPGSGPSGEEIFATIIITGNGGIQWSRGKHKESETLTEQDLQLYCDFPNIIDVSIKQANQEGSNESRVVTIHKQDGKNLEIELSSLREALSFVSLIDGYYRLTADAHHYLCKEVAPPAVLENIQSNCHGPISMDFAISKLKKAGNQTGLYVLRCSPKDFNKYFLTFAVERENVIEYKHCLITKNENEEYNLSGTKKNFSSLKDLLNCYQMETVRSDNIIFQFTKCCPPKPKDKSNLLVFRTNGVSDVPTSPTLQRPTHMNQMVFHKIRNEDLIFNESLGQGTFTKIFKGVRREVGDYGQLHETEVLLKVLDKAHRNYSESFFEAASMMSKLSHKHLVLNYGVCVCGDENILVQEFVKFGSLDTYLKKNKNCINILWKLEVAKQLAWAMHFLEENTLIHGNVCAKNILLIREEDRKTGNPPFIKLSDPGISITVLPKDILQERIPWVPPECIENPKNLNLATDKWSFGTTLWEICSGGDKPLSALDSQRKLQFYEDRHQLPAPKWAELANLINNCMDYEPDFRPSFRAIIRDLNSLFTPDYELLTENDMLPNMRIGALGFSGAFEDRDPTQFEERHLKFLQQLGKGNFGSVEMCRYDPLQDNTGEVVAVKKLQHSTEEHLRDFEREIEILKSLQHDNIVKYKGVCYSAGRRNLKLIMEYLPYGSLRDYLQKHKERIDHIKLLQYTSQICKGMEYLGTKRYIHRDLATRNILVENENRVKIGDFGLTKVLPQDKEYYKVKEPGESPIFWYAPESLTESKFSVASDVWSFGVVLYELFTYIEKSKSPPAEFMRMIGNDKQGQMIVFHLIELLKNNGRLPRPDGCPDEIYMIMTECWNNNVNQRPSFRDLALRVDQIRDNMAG
Chain of Histone deacetylase 2 (Q92769 whole entry): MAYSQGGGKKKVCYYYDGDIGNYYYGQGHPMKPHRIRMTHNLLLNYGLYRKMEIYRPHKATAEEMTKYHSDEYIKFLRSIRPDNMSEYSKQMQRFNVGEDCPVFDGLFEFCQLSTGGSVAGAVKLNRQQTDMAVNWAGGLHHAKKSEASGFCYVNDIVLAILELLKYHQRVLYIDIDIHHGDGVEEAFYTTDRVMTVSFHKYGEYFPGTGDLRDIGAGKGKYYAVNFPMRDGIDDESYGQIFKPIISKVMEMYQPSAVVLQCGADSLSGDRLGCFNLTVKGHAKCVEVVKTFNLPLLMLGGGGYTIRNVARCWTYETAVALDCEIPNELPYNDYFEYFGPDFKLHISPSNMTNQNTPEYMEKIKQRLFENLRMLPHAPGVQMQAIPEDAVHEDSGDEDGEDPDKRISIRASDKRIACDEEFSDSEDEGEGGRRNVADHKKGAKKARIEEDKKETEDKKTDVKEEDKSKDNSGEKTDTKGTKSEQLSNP

SMILES	IC50 (Histone deacetylase 2) [nM]	IC50 [1] [nM]	IC50 (Histone deacetylase 1) [nM]	IC50 (HL-60) [nM]	Activity (HEL [2]) [%]	Activity (HEL [3]) [%]	IC50 [4] [nM]	IC50 (Histone deacetylase 8) [nM]	MIC50 (Candida albicans [5]) [µg/mL]	MIC50 (Candida albicans [6]) [µg/mL]	MIC50 (Candida albicans [7]) [µg/mL]	MIC50 (Candida albicans [8]) [µg/mL]	fractional inhibitory concentration index (FICI) (Candida albicans [9])	inhibition [10]	Activity (Mus musculus)	Survival (HEL [11]) [days]	CLH [12] [µL/min/mg]	inhibition (INH) (Candida albicans [13]) [%]
CS(=O)(=O)Nc1ccc(-c2ccnc(Nc3ccc(N4CCC(C(=O)NCCCCCCCC(=O)NO)CC4)cc3)n2)cc1	132	74	18	> 50000	8.12	34.37	74	572	> 64	0.25 (≈ 0.401 µM)	8	> 64	0.13	Dose-dependent effect	Active	27	88.1	
O=C(NO)c1ccc(-c2ccnc(Nc3ccc(N4CCOCC4)cc3)n2)cc1	1700	419	160	6100		18.9	419	609	> 64	0.5 (≈ 1.28 µM)	8	> 64	0.13	Dose-dependent effect	Active	27	83.8	30
CS(=O)(=O)Nc1ccc(-c2ccnc(Nc3ccc(N4CCC(C(=O)Nc5ccc(/C=C/C(=O)NO)cc5)CC4)cc3)n2)cc1	7470	46	250	1500	28.14		46	6070	> 64	0.5 (≈ 0.797 µM)	4	> 64	0.07	Dose-dependent effect	Active		71.6	30
